Like-named read-outs stand apart in the source and are kept apart here.
Assays:
[1] = tested on: rats (schedule-induced polydipsia); experiment: Schedule-Induced Polydipsia in Rats; format: in vivo, rat (male Wistar); details: i.p., daily; rats tested once a week
Excerpt: Schedule-Induced Polydipsia in Rats
Food deprived rates exposed to a fixed-interval feeding schedule and allowed free access to water develop an excessive drinking behavior known as polydipsia. This schedule-induced polydipsia (SIP) cannot be explained in terms of a physiological deficit due to water deprivation. Furthermore,it offers no benefit or reward to the rat (1). Just as SIP involves the exaggeration of the normal drinking behavior, the compulsive symptoms of obsessive-compulsive disorder (OCD) can be considered an exaggeration of normal human behaviors.
Male Wistar rats (Charles River) weighing 180-220 grams were individually housed and maintained in accordance with the "NIH Guide to Care and Use of Laboratory Animals" (National Institute of Health Care Publications, No. 85-23, revised 1985) with a 12 hour light; 12 hour dark cycle and allowed free access to water. The rats were placed on a restricted diet which maintained 80% of their free feeding body weight. To induce polydipsia, rats were placed in operant chambers housed in sound attenuated boxes where a pellet dispenser automatically dispensed two 45 mg (Noyes) pellets on a fixed-interval 60 second (FI-60 sec.) schedule over a 150 minute test session. Water was available at all times in the operant chambers. After four weeks (Monday through Friday) of exposure to the FI-60 sec. feeding schedule, approximately 80% of the rats met a pre-determined criterion for water consumption (greater than 60 mls of water per session) and were considered polydipsic. Rats (N=8) were administered, intraperitoneally (IP), vehicle or the appropriate compound daily. Once dosing commenced, the rats were tested in the operant chambers once a week to assess SIP.
Compounds were either dissolved or suspended in distilled water plus a drop of Tween 80 and injected IP in a dosage volume of 1 ml/kg. The final volume was prepared to account for salt content and the dosage was expressed as 100% base.

[2] = tested on: norepinephrine uptake (active transport system); details: high-affinity, sodium dependent active transport system; literature; read-out: Km (NE uptake); cited from earlier work
5HT1A receptor = biological target: T1, 5HT1A receptor (Rattus norvegicus, UniProt P19327); experiment: [3H]DPAT Binding to Serotonin Receptors of 5HT1A Type; parameters: species or system rat (male Wistar, hippocampus); details: [3H]DPAT 0.5 nM, rat hippocampal membranes
T1 construct: Hippocampi are removed, weighed and homogenized in 20 volumes of 0.05 M Tris buffer; from tissue; host or cells: rat hippocampus membranes (male Wistar)
T1 sequence (P19327 1-422): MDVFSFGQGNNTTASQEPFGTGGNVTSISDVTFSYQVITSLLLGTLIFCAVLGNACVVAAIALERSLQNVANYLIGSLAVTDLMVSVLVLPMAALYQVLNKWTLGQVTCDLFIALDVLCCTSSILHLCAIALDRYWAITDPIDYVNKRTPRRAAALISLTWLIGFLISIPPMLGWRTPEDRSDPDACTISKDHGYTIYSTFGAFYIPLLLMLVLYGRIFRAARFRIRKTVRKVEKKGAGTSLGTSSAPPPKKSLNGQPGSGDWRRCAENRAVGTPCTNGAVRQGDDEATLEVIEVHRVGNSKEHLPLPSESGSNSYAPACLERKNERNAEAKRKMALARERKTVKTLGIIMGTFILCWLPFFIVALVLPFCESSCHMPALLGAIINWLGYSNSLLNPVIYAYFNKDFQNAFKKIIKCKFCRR
Protocol: The purpose of this assay is to determine the affinity of test compounds for the 5HT1A receptor in the brain.
Serotonin creatinine sulfate. 0.5 mM stock solution is made up in 0.01 N HCl and 20 μl added to 3 tubes for determination of nonspecific binding (final concentration=10 μM).
Test Compounds. For most assays, a 1 mM stock solution is made up in a suitable solvent and serially diluted, such that the final concentration in the assay ranges from 2×10^-5 to 2×10^-8 M. Seven concentrations are used for each assay.
Male Wistar rats are sacrificed by decapitation. Hippocampi are removed, weighed and homogenized in 20 volumes of 0.05 M Tris buffer, pH 7.7. The homogenate is centrifuged at 48,000 g for 10 minutes and the supernatant is discarded. […]
Tubes are incubated for 15 minutes at 25° C. […] The filters are then placed into scintillation vials with 10 ml of Liquiscint scintillation cocktail and counted.
Specific binding is defined as the difference between total binding and binding in the presence of 10 μM 5HT. IC50 values are calculated from the percent specific binding at each drug concentration. […]
Tubes are incubated for 15 minutes at 25° C. […] The filters are then placed into scintilltion vials with 10 ml of Liquiscint scintillation cocktail and counted. […] IC50 values are calculated from the percent specific binding at each drug concentration.

5HT3 receptor = biological target: T2, 5HT3 receptor (Rattus norvegicus, UniProt P35563); experiment: biochemical; format: binding, rat (male Wistar, entorhinal cortex)
T2 sequence (P35563 24-483): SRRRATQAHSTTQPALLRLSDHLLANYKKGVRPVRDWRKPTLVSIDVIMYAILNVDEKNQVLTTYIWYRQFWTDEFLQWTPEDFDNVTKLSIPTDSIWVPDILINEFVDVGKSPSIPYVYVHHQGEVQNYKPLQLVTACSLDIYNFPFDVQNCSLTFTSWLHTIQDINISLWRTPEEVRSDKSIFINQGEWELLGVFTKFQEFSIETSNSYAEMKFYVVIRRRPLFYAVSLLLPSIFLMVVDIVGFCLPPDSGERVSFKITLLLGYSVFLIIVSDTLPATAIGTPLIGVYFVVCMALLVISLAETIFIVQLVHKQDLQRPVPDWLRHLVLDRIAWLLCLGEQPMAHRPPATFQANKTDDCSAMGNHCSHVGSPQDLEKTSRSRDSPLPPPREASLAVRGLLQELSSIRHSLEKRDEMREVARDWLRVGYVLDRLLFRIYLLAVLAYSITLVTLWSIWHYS
Protocol: The homogenate is centrifuged at 48,000 g for 15 minutes at 4° C.
The filters are dried and counted in 10 ml of liquid scintillation cocktail.

[3] = tested on: serotonin uptake, rat whole brain synaptosomes; experiment: Inhibition of [3H]-Serotonin Uptake in Rat Whole Brain Synaptosomes; format: biochemical, rat (male Wistar); details: [3H]-5HT 50 nM, read-out: C: Inhibition of serotonin uptake, IC50
Protocol: (C) Inhibition of [^3 H]-Serotonin Uptake in Rat Whole Brain Synaptosomes
(§1) A. Animals: Male CR Wistar Rats (100-125 g).
The final desired concentration of ^3 H-5HT in the assay is 50 nM. The dilution factor is 0.8.
5. For most assays, a 1 mM solution of the test compound is made up in suitable solvent and serially diluted such that the final concentration in the assay ranges from 2×10^-8 to 2×10^-5 M. Seven concentrations are used for each assay.
(§2) Male Wistar rats are decapitated and the brain rapidly removed. Whole brain minus cerebella is weighed and homogenized in 9 volumes of ice-cold 0.32 M sucrose using a Potter-Elvejhem homogenizer. Homogenization should be done with 4-5 up and down strokes at medium speeds to minimize synaptosome lysis. The homogenate is centrifuged at 1000 g for 10 min. at 0-4° C. The supernatant (S1) is decanted and is used for uptake experiments.
(§3) Tubes are incubated at 37° C. under a 95% O2 /5% CO2 atmosphere for 5 minutes. For each assay, 3 tubes are incubated with 20 μl of vehicle at 0° C. in an ice bath. After incubation all tubes are immediately centrifuged at 4000 g for 10 minutes. The supernatant fluid is aspirated and the pellets dissolved by adding 1 ml of solubilizer (Tritor. X-100+50% EtOH, 1:4 v/v). The tubes are vigorously vortexed, decanted into scintillation vials, and counted in 10 ml of Liquiscint scintillation counting cocktail. Active uptake is the difference between cpm at 37° C. and 0° C. The percent inhibition at each drug concentration is the mean of three determinations. IC50 values are derived from log-probit analysis.

[4] = tested on: norepinephrine uptake, rat whole brain or hypothalamic synaptosomes; experiment: Inhibition of [3H]-Norepinephrine Uptake in Rat Whole Brain or Hypothalamic Synaptosomes; format: biochemical, rat (male Wistar); details: [3H]-NE 50 nM, read-out: E: Inhibition of norepinephrine uptake, IC50
Protocol: (E) Inhibition of [^3 H]-Norepinephrine Uptake in Rat Whole Brain or Hypothalamic Synaptosomes
This assay is used as a biochemical screen for potential antidepressants which block norepinephrine uptake.
A. Animals: Male CR Wistar rats (100-125 g).
The final desired concentration of [^3 H]-NE in the assay is 50 nM. The dilution factor is 0.8.
(§4) 5. For most assays, a 1 mM stock solution of the test compound is made up in a suitable solvent and serially diluted such that the final concentration in the assay ranges from 2×10^-8 to 2×10^-5 M. Seven concentrations are used for each assay.
as §2, with “Either whole” for “Whole”, “cerebella or hypothalamus” for “cerebella”
as §3, with “(Triton” for “(Tritor.”

[5] = tested on: dopamine uptake, rat striatal synaptosomes; experiment: Inhibition of 3H-Dopamine Uptake in Rat Striatal Synaptosomes; format: biochemical, rat (male Wistar); details: 3H-DA 50 nM, read-out: D: Inhibition of dopamine uptake, IC50
Protocol: (D) Inhibition of ^3 H-Dopamine Uptake in Rat Striatal Synaptosomes
This assay is used to show differential drug effects on dopamine uptake versus norepinephrine uptake and to identify therapeutic agents for diseases where the potentiation of dopaminergic activity may be helpful (e.g. Parkinson's Disease).
as §1
The final desired concentration of ^3 H-DA in the assay is 50 nM. The dilution factor is 0.9. Therefore, the KHBB is made up to contain 55.5 nM [^3 H]-5DA.
as §4, with “assay. Higher or lower concentrations may be used depending on the potency of the compound.” for “assay.”
as §2, with “Corpora striata are rapidly removed,” for “Whole brain minus cerebella is”
as §3, with “(Triton” for “(Tritor.”

[6] = [3H]-GR65630 0.4 nM, rat entorhinal cortex, read-out: B: 5HT3 receptor binding, IC50

With `CN(C)CCCN1c2ccccc2CCc2ccc(Cl)cc21` [Clomipramine, reference compound] the “inhibition of SIP (schedule-induced polydipsia), active dose” value (“inhibition of SIP” for short) [1] was “Active at 5”.

In the case of `CC(C)CN(c1ccncc1)c1csc2cc(Cl)ccc12.Cl` [6-Chloro3-[(2-methylpropyl)(4-pyridinyl)amino]benzo[b]thiophen hydrochloride], the “inhibition of SIP” value [1] is reported as “Active at 15”.

For `CC(C)CN(c1ccncc1)c1csc2cc(C(F)(F)F)ccc12.Cl` [3-[(2-Methylpropyl)(4-pyridinylamino)]-6-trifluoromethylbenzo[b]thiophene hydrochloride], the “inhibition of SIP” value [1] was “Active at 15”.

For `NC[C@H](O)c1ccc(O)c(O)c1` [norepinephrine], the Km [2] is listed as 100 to 1000 nM.

Compound `c1ccc2c(Nc3ccncc3)c[nH]c2c1` [3-(4-pyridinylamino)-1H-indole] has an IC50 (5HT1A receptor) of 6.4 µM, an IC50 (5HT3 receptor; [6]) of 5500 nM and an IC50 [3] of 14.5 µM. For the same compound, the IC50 [4] was 1000 nM.

`CCCN(c1ccncc1)c1csc2cc(Cl)ccc12.Cl` [6-Chloro-3-(propyl-4-pyridinylamino)benzo[b]thiophene hydrochloride] gave an IC50 (5HT3 receptor; [6]) of 2600 nM, an IC50 [3] of 0.06 µM and an IC50 [5] of 560 nM. The IC50 [4] was 210 nM and the “inhibition of SIP” value [1] was “Active at 30 and 15”.

With `CNCCC(Oc1ccc(C(F)(F)F)cc1)c1ccccc1` (stereo not drawn) [Fluoxetine, reference compound] the “inhibition of SIP” value [1] was “Active at 5”.

`CN1[C@@H]2CC[C@H]1C[C@@H](OC(=O)c1cc(Cl)cc(Cl)c1)C2` [MDL 72222, reference compound] gave an IC50 (5HT3 receptor) of 530 nM.
